Assays:
HL 60 cells = assay: differentiation induction of HL 60 cells to macrophages (NBT reduction); format: cell-based, human; details: dose ratio test substance/calcitriol for comparable semi-maximum differentiation induction; 96 hours incubation
Method: The differentiation-stimulating action of calcitriol analogues is also detected quantitatively.
It is known in the literature [Mangelsdorf, D. J. et al., J. Cell. Biol. 98: 391 (1984)] that the treatment of human leukemia cells (promyelocyte cell line HL 60) in vitro with calcitriol induces the differentiation of cells to macrophages.
HL 60 cells are cultivated in tissue culture medium (RPMI 10% fetal calf serum) at 37° C. in an atmosphere of 5% CO2 in air.
For substance testing, the cells are centrifuged off, and 2.0×10^5 cells/ml in phenol red-free tissue culture medium is taken up. The test substances are dissolved in ethanol and diluted with tissue culture medium without phenol red to the desired concentration. The dilution stages are mixed with the cell suspension at a ratio of 1:10, and 100 μl each of this cell suspension that is mixed with substance is pipetted into an indentation of a 96-hole plate. For control, a cell suspension is mixed analogously with the solvent.
After incubation for 96 hours at 37° C. in 5% CO2 in air, 100 μl of an NBT-TPA solution (nitro blue tetrazolium (NBT), final concentration in the batch of 1 mg/ml, tetradecanoyl phorbolmyristate-13-acetate (TPA), final concentration in the batch of 2×10^−7 mol/l) is pipetted into each indentation of the 96-hole plate in the cell suspension.
By incubation for 2 hours at 37° C. and 5% CO2 in air, NBT is reduced to insoluble formazan because of the intracellular oxygen radical release, stimulated by TPA, in the cells that are differentiated to macrophages.
To complete the reaction, the indentations of the 96-hole plate are suctioned off, and the cells are affixed to the bottom of the plate by adding methanol and dried after affixing. To dissolve the intracellular formazan crystals that are formed, 100 μl of potassium hydroxide (2 mol/l) and 100 μl of dimethyl sulfoxide are pipetted into each indentation and ultrasonically treated for 1 minute. The concentration of formazan is measured by spectrophotometry at 650 nm.
As a yardstick for the differentiation induction of HL 60 cells to macrophages, the concentration of formed formazan applies.

[1] = acute hypercalcemic action (serum-calcium) in rats; format: in vivo, rat; details: dose ratio test substance/calcitriol for comparable hypercalcemic action; one-time subcutaneous administration, male rats
Method: To determine the acute hypercalcemic action of various calcitriol derivatives, the test that is described below is carried out:
The action of control (solution base), reference substance (1,25-dihydroxy vitamin D3=calcitriol) and test substance is tested in each case after one-time subcutaneous administration in groups of 10 healthy male rats (140–170 g). During the testing time, the rats are kept in special cages to determine the excretion of water and mineral substances. Urine is collected in 2 fractions (0–16 hours and 16–22 hours). An oral dose of calcium (0.1 mmol of calcium in 6.5% alpha-hydroxypropylcellulose, 5 ml/animal) replaces at 1600 hours the calcium intake that is lacking by food deprivation. At the end of the test, the animals are killed by decapitation and exsanguinated to determine the serum-calcium values. For the primary screen test in vivo, an individual standard dose (200 μg/kg) is tested. For selected substances, the result is supported by establishing a dose-effect relation.
A hypercalcemic action is shown in serum-calcium level values that are higher than in the control.
The significance of differences between substance groups and controls and between test substance and reference substance are supported with suitable statistical processes.

[2] = metabolic stability in liver homogenate; format: in vitro ADME; details: half-life in the liver homogenate (rat)
Method: To determine the metabolic stability, the test substance is incubated with tissue homogenate (from the rat liver) in the presence of buffer systems. The drop in starting concentration is tracked as a function of time. After a certain time, the incubation is stopped, and the unaltered test substance is extracted from the homogenate (diethyl ether), concentrated by evaporation under nitrogen, isolated via HPLC (mobile solvent: acetonitrile/water) and detected using UV-absorption.

calcitriol receptor = biological target: T1, calcitriol receptor (Sus scrofa, UniProt A3RGC1); assay: calcitriol-receptor test (competition with 3H-calcitriol); details: competition factor = concentration of test substance / concentration of calcitriol at 50% competition; protein extract from intestines of juvenile pigs
T1 sequence (A3RGC1 1-427): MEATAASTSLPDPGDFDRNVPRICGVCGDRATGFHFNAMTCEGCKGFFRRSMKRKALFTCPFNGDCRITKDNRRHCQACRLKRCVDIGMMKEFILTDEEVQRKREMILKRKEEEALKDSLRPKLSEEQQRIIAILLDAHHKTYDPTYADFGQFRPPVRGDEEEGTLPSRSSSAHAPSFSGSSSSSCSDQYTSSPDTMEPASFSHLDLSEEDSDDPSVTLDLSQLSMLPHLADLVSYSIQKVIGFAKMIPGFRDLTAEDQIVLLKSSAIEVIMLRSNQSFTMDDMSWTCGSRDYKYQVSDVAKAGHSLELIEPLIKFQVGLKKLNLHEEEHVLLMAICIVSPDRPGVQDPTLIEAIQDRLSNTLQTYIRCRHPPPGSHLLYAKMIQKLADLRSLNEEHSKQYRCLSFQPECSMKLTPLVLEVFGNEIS
Method: The vitamin D activity of the substances according to the invention is determined with the aid of the calcitriol-receptor test. It is carried out using a protein extract from the intestines of juvenile pigs.
Then, the samples are centrifuged at 10,000 g for 5 minutes at 4° C. The supernatant is decanted and measured in a β-counter after 1 hour of equilibration in Picofluor 15™.
The competition curves that are obtained at various concentrations of test substance as well as of reference substance (unlabeled calcitriol) at constant concentration of the reference substance (^3H-calcitriol) are placed in relation to one another, and a competition factor (KF) is determined.
It is defined as a quotient of the concentrations of the respective test substance and the reference substance, which are necessary for 50% competition:

Compound | DR HL 60 (HL 60 cells) | DR Ca [1] | T½ [2] | KF (calcitriol receptor) | half-life ([2]; read-out: T½)
C=C1/C(=C\C=C2/CCC[C@]3(C)[C@@H]([C@H](C)/C=C/[C@@H](O)CCC4(C(C)=O)CC4)CC[C@@H]23)C[C@@H](O)C[C@@H]1O [Compound 168b, (5Z,7E,22E)-(1S,3R,24S)-25-acetyl-26,27-cyclo-24a,24b-dihomo-9,10-secocholesta-5,7,10(19),22-tetraene-1,3,24-triol] | 7 | >100 | 2 h | 3 | 
C=C1/C(=C\C=C2/CCC[C@]3(C)[C@@H]([C@H](C)/C=C/[C@@H](O)CCC4(C(=O)CCC)CC4)CC[C@@H]23)C[C@@H](O)C[C@@H]1O [Compound 175b, (5Z,7E,22E)-(1S,3R,24S)-25-(1-oxobutyl)-26,27-cyclo-24a,24b-dihomo-9,10-secocholesta-5,7,10(19),22-tetraene-1,3,24-triol] | 3 | >100 | 1.5 h | 1 | 
C=C1/C(=C\C=C2/CCC[C@]3(C)[C@@H]([C@H](C)/C=C/[C@@H](O)CCC4(C(=O)CCCC)CC4)CC[C@@H]23)C[C@@H](O)C[C@@H]1O [Compound 182b, (5Z,7E,22E)-(1S,3R,24S)-25-(1-oxopentyl)-26,27-cyclo-24a,24b-dihomo-9,10-secocholesta-5,7,10(19) ,22-tetraene-1,3,24-triol] | 18 | >100 | 1.67 h | 2 | 
C=C1/C(=C\C=C2/CCC[C@]3(C)[C@@H]([C@H](C)/C=C/[C@H](O)C4(CC)CC4)CC[C@@H]23)C[C@@H](O)C[C@@H]1O [Compound 214a, (5Z,7E,22E)-(1S,3R,24S)-25-Ethyl-26,27-cyclo-9,10-secocholesta-5,7,10(19),22-tetraene-1,3,24-triol] | 1.5 | >>1 | 1.33 h | 3 | 
C=C1/C(=C\C=C2/CCC[C@]3(C)[C@@H]([C@H](C)/C=C/[C@@H](O)C4(CC)CC4)CC[C@@H]23)C[C@@H](O)C[C@@H]1O [Compound 214b, (5Z,7E,22E)-(1S,3R,24R)-25-ethyl-26,27-cyclo-9,10-secocholesta-5,7,10(19),22-tetraene-1,3,24-triol] | 0.1 | >1 | 1.67 h | 1 | 
C=C1/C(=C\C=C2/CCC[C@]3(C)[C@@H]([C@H](C)/C=C/[C@@H](O)C4(/C=C/CC)CC4)CC[C@@H]23)C[C@@H](O)C[C@@H]1O [Compound 221b, [5Z,7E,22E,25(E)]-(1S,3R,24R)-25-(1-butenyl)-26,27-cyclo-9,10-secocholesta-5,7,10(19),22-tetraene-1,3,24-triol] | 0.1 | 10 | 1.5 h | 2 | 
C=C1/C(=C\C=C2/CCC[C@]3(C)[C@@H]([C@H](C)/C=C/[C@H](O)C4(CCCC)CC4)CC[C@@H]23)C[C@@H](O)C[C@@H]1O [Compound 226a, (5Z,7E,22E)-(1S,3R,24S)-25-Butyl-26,27-cyclo-9,10-secocholesta-5,7,10(19),22-tetraene-1,3,24-triol] | 2 | >>1 | 1.33 h | 4 | 
C=C1C(=CC=C2CCCC3(C)C2CCC3C(C)C=CC(O)C2(CCCC)CC2)CC(O)CC1O [Compound 226b, (5Z,7E,22E)-(1S,3R,24R)-25-butyl-26,27-cyclo-9,10-secocholesta-5,7,10(19),22-tetraene-1,3,24-triol] | 0.4 | >5 | 1.67 h | 3 | 
C=C1/C(=C\C=C2/CCC[C@]3(C)[C@@H]([C@H](C)/C=C/[C@@H](O)C4(CCCCCC)CC4)CC[C@@H]23)C[C@@H](O)C[C@@H]1O [Compound 231b, (5Z,7E,22E)-(1S,3R,24R)-25-hexyl-26,27-cyclo-9,10-secocholesta-5,7,10(19),22-tetraene-1,3,24-triol] | 2 | >100 | 1.25 h | 9 | 
C=C1/C(=C\C=C2/CCC[C@]3(C)[C@@H]([C@H](C)/C=C/[C@@H](O)C4(CCCCCCC)CC4)CC[C@@H]23)C[C@@H](O)C[C@@H]1O [Compound 236b, (5Z,7E,22E)-(1S,3R,24R)-25-heptyl-26,27-cyclo-9,10-secocholesta-5,7,10(19),22-tetraene-1,3,24-triol] | 4 | >>30 | 1.67 h | 20 | 
C=C1/C(=C\C=C2/CCC[C@]3(C)[C@@H]([C@H](C)/C=C/[C@@H](O)C4CC4)CC[C@@H]23)C[C@@H](O)C[C@@H]1O [calcipotriol, (5Z,7E,22E)-(1S,3R,24S)-26,27-Cyclo-9,10-secocholesta-5,7,10(19),22-tetraene-1,3,24-triol, reference compound] | 1 | 50 |  | 1 | 0.667 h
[5Z,7E,22E,25(Z)]-(1S,3R,24S)-25-(1-octenyl)-26,27-cyclo-9,10-secocholesta-5,7,10(19),22-tetraene-1,3,24-triol [Compound 246b] | 2 | >>10 | 1.67 h | 10 | 

Source: US7071344B1, “Vitamin D derivatives with cyclopropyl rings in the lateral chains, a method and intermediate products for the production thereof and the utilization thereof for producing medicaments” (Schering AG, priority 1997, dated 2006)
